These results are taken from patent US4751221A, “2-fluoro-arabinofuranosyl purine nucleosides” (Sloan-Kettering Institute for Cancer Research, priority 1985, dated 1988).

Bounds are passed on as bounds.

In data set [1] the test system is NL (Namalva) cells. Briefly: Cytotoxicity against NL (Namalva) human tumor cells. The format is cell-based. To be noted: for IC50: NAMALVA, human cells NL, read-out: ID50 NL; for inhibitory activity against human tumor cell line Namalva: in words.
The subject of data set [2] is CCRF-CEM cells. Briefly: Cytotoxicity against CCRF-CEM human tumor cells. The format is cell-based. The conditions noted are these: for IC50: human cells CCRF-CEM, read-out: ID50 CCRFCEM; for inhibitory activity against human tumor cell line CCRF-CEM: in words.
In data set [3] the test system is P-813 cells. The experiment in a line: Cytotoxicity against P-813 (text: P-815) mouse leukemia cells. The class given is cell-based. The conditions noted are these: for IC50: P815, mouse leukemia cells P-813, read-out: ID50 P-813; for activity against mouse leukemic cells P-815: in words.
Data set [4] has as its system L-1210 cells. Briefly: Cytotoxicity against L-1210 mouse leukemia cells. The format is cell-based. To be noted: for activity against mouse leukemic cells L-1210: in words.
The test system of data set [5] is Leishmania tropica promastigotes. Briefly: Growth inhibition of Leishmania tropica promastigotes. The format is cell-based. To be noted: 50% growth inhibition, read-out: inhibits the growth of Leishmania tropica promastigotes by 50% at the concentration.
The test system of data set [6] is L-1210 mouse leukemic cells. To be noted: in tissue culture; Wilson et al., J. Med. Chem., 13, 369 (1970); cited from earlier work.

Take `Nc1nc(S)c2ncn([C@@H]3O[C@H](CO)[C@@H](O)[C@@H]3F)c2n1` [9-(2'-deoxy-2'-fluoro-β-D-arabinofuranosyl)-2-amino-6-thiopurine]: in data set [1], the IC50 came out at 1.2 µM and the “inhibitory activity against human tumor cell line Namalva” value is recorded as “potent inhibitory activity”. In data set [2], the IC50 was 0.1 µM and the “inhibitory activity against human tumor cell line CCRF-CEM” value is recorded as “potent inhibitory activity”. For the same compound, in data set [3], the IC50 stood at 4.6 µM and the “activity against mouse leukemic cells P-815” value is listed as “modest”. Besides, the “activity against mouse leukemic cells L-1210” value in data set [4] is given as “modest”.
As for `Nc1nc2c(ncn2[C@@H]2O[C@H](CO)[C@@H](O)[C@@H]2F)c(=O)[nH]1` [9-(2'-deoxy-2'-fluoro-β-D-arabinofuranosyl)-guanine], in data set [1], the IC50 is 0.7 µM and the “inhibitory activity against human tumor cell line Namalva” value is on record as “potent inhibitory activity”. Moreover, in data set [2], the IC50 is under 0.1 µM and the “inhibitory activity against human tumor cell line CCRF-CEM” value is on record as “potent inhibitory activity”. For the same compound, in data set [3], the IC50 was found to be 5.4 µM and the “activity against mouse leukemic cells P-815” value was “modest”. Moreover, the “activity against mouse leukemic cells L-1210” value in data set [4] is recorded as “modest”.
Take `O=c1[nH]cnc2c1ncn2[C@@H]1O[C@H](CO)[C@@H](O)[C@@H]1F` [9-(2'-deoxy-2'-fluoro-β-D-arabinofuranosyl)hypoxanthin]: the IC50 in data set [1] is about 30 µM; in data set [2], 15.1 µM; in data set [5], 0.6 µM; in data set [3], over 30 µM; in data set [4] (L1210, mouse leukemia cells L-1210, read-out: ID50 L-1210) it was over 30 µM. Besides, in data set [4] (at the concentration of 100 μM), the “cytotoxicity against L-1210 cells” value was “does not exhibit any cytotoxicity”.
Regarding `Nc1ccn([C@@H]2O[C@H](CO)[C@@H](O)[C@@H]2F)c(=O)n1` [FAC, 1-(2'-deoxy-2'-fluoro-β-D-arabinofuranosyl)cytosine], the “growth-inhibitory effect against L-1210 mouse leukemic cells” value in data set [6] is “comparable with that of 1-(β-D-arabinofuranosyl)cytosine (ara-C) and 1-(β-D-arabinofuranosyl)-5-fluorocytosine (ara-FC)”.
On to `Nc1ncnc2c1ncn2[C@@H]1O[C@H](CO)[C@@H](O)[C@@H]1F` [X = NH2, Y = H, 9-(2'-deoxy-2'-fluoro-β-D-arabinofuranosyl)adenine], for which the IC50 in data set [1] was 3 µM; in data set [2] it was 0.67 µM; in data set [3], over 30 µM.
For `OC[C@H]1O[C@@H](n2cnc3c(S)ncnc32)[C@@H](F)[C@@H]1O` [X = SH, Y = H, 9-(2'-deoxy-2'-fluoro-β-D-arabinofuranosyl)-6-thiopurine] the same measures were 2 µM, 10 µM and 10 µM.
